Data published in the NIST ThermoML archive (doi:10.1021/je800596c).
Numbers after ± are expanded uncertainties.

How the values were obtained:
[1] = Crystal; DTA
[2] = Molar enthalpy of transition or fusion; conditions: Crystal; DSC

| Compound | Normal melting temperature [1] [°C] | Molar enthalpy of transition or fusion [2] [kcal/mol] |
| --- | --- | --- |
| COC(=O)C=Cc1ccc(O)cc1 [2-propenoic acid, 3-(4-hydroxyphenyl)-, methyl ester] | 137.56 ± 0.5 | 7.22 ± 0.206 |
| COC(=O)/C=C/c1cc(OC)c(O)c(OC)c1 [3,5-dimethoxy-4-hydroxy cinnamic acid methyl ester] | 88.64 ± 0.5 | 7.14 ± 0.203 |
| COC(=O)C=Cc1ccc(O)c(OC)c1 [methyl 3-(4-hydroxy-3-methoxyphenyl)-2-propenoate] | 62.56 ± 0.5 | 6.17 ± 0.179 |
